Key:
Test in all cases: Bliss excess, mean over the matrix (fraction); higher = more synergy
RH-41 (Rhabdomyosarcoma) = system: RH-41 (Rhabdomyosarcoma)
In short: (§1)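 After 24 hours at 37°C and 5% CO2 in 1536-well plates, cells in DMEM/F12 or RPMI plus 10% FBS received two-drug dose matrices for 72 hours. Viability came from CellTiter-Glo 2.0 luminescence and was scaled as inhibition, anchored at 0 by vehicle wells and at 1 by blank wells. Combination Emax is taken as the second-highest inhibition in the matrix, and Bliss excess as the observed combination effect less EA + EB − EA·EB, with EA and EB the single-agent effects.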

[1] = system: EPLC-272H (Other Solid Carcinomas)
In short: as §1

[2] = system: HT55 (Colorectal Carcinoma)
In short: as §1

HCC70 (Breast Carcinoma) = system: HCC70 (Breast Carcinoma)
In short: as §1

WM1552C (Melanoma) = system: WM1552C (Melanoma)
In short: as §1

[3] = system: HCC1395 (Breast Carcinoma)
In short: as §1

AU565 (Breast Carcinoma) = system: AU565 (Breast Carcinoma)
In short: as §1

EW-16 (Ewing's Sarcoma) = system: EW-16 (Ewing's Sarcoma)
In short: as §1

[4] = system: HCC1428 (Breast Carcinoma)
In short: as §1

[5] = system: G-402 (Other Solid Carcinomas)
In short: as §1

[6] = system: LU-165 (Small Cell Lung Carcinoma)
In short: as §1

[7] = system: CGTH-W-1 (Thyroid Gland Carcinoma)
In short: as §1

EW-7 (Ewing's Sarcoma) = system: EW-7 (Ewing's Sarcoma)
In short: as §1

[8] = system: huH-1 (Hepatocellular Carcinoma)
In short: as §1

[9] = system: 22RV1 (Prostate Carcinoma)
In short: as §1

[10] = system: NCI-H2087 (Lung Adenocarcinoma)
In short: as §1

[11] = system: CAL-27 (Oral Cavity Carcinoma)
In short: as §1

[12] = system: JIMT-1 (Breast Carcinoma)
In short: as §1

[13] = system: DMS-53 (Small Cell Lung Carcinoma)
In short: as §1

[14] = system: MDA-MB-436 (Breast Carcinoma)
In short: as §1

Row | Compound | Bliss excess (RH-41 (Rhabdomyosarcoma)) | Bliss excess [1] | Bliss excess [2] | Bliss excess (HCC70 (Breast Carcinoma)) | Bliss excess (WM1552C (Melanoma)) | Bliss excess [3] | Bliss excess (AU565 (Breast Carcinoma)) | Bliss excess (EW-16 (Ewing's Sarcoma)) | Bliss excess [4] | Bliss excess [5] | Bliss excess [6] | Bliss excess [7] | Bliss excess (EW-7 (Ewing's Sarcoma)) | Bliss excess [8] | Bliss excess [9] | Bliss excess [10] | Bliss excess [11] | Bliss excess [12] | Bliss excess [13] | Bliss excess [14]
1 | CN(C)CCCOc1ccc(-c2ccc3ncc4c(c3c2)n(C2CCOCC2)c(=O)n4C)cn1 [AZD0156] + C=CCn1c(=O)c2cnc(Nc3ccc(N4CCN(C)CC4)cc3)nc2n1-c1cccc(C(C)(C)O)n1 [AZD1775] (first compound max 1 µM, partner max 1 µM) | -0.0175 | -0.0105 | -0.0671 | -0.0682 | 0.0116 | -0.0648 | -0.016 | -0.0464 | -0.115 | -0.0501 | -0.118 | -0.033 | 0.039 | 0.0041 | -0.095 | -0.071 | -0.0539 | -0.0287 | -0.028 | -0.0623
2 | CN(C)CCCOc1ccc(-c2ccc3ncc4c(c3c2)n(C2CCOCC2)c(=O)n4C)cn1 [AZD0156] + CCN(CCO)CCCOc1ccc2c(Nc3cc(CC(=O)Nc4cccc(F)c4)[nH]n3)ncnc2c1 [AZD2811] (first compound max 1 µM, 7x7, partner max 1 µM) | 0.0369 | 0.0394 | 0.0091 | -0.0184 | -0.0135 | -0.0936 | 0.0021 | 0.0083 | -0.06 | -0.0111 | -0.04 | -0.0076 | 0.0718 | 0.0049 | -0.0279 | -0.0251 | -0.0054 | -0.0181 | -0.0251 | -0.0539
3 | CN(C)CCCOc1ccc(-c2ccc3ncc4c(c3c2)n(C2CCOCC2)c(=O)n4C)cn1 [AZD0156] + C[C@@H]1COCCN1C2=NC(=NC(=C2)C3(CC3)[S@](=N)(=O)C)C4=C5C=CNC5=NC=C4 [AZD6738] (first compound max 1 µM, 7x7, partner max 10 µM) | 0.0593 | 0.0156 | -0.0042 | -0.0103 | 0.0189 | -0.0245 | 0.0094 | -0.0074 | -0.0541 | -0.0306 | -0.0515 | -0.0189 | 0.0318 | 0.0019 | -0.0678 | -0.0008 | 0.0433 | 0.0042 | -0.0249 | -0.0396
4 | CN(C)CCCOc1ccc(-c2ccc3ncc4c(c3c2)n(C2CCOCC2)c(=O)n4C)cn1 [AZD0156] + O=C(c1cc(Cc2n[nH]c(=O)c3ccccc23)ccc1F)N1CCN(C(=O)C2CC2)CC1 [Olaparib] (first compound max 3 µM, partner max 3 µM) | 0.0128 | -0.0122 | 0.0254 | -0.0548 | 0.0213 | 0.0515 | 0.0442 | 0.0975 | 0.0051 | 0.0571 | 0.0093 | 0.0361 | 0.119 | -0.0726 | 0.0313 | -0.043 | 0.0602 | -0.0233 | -0.0283 | -0.0232
5 | C=CCn1c(=O)c2cnc(Nc3ccc(N4CCN(C)CC4)cc3)nc2n1-c1cccc(C(C)(C)O)n1 [AZD1775] + C1CN(CCC1(C(=O)N[C@@H](CCO)C2=CC=C(C=C2)Cl)N)C3=NC=NC4=C3C=CN4 [Capivasertib] (first compound max 3 µM, partner max 3 µM) | -0.0387 | -0.0011 | -0.125 | -0.0235 | 0.0306 | -0.0085 | -0.0494 | -0.0481 | -0.0203 | -0.0346 | -0.117 | -0.0278 | 0.0149 | -0.0242 | -0.0348 | -0.0287 | -0.0197 | 0.0069 | -0.007 | 0.0064
6 | C=CCn1c(=O)c2cnc(Nc3ccc(N4CCN(C)CC4)cc3)nc2n1-c1cccc(C(C)(C)O)n1 [AZD1775] + C[C@@H]1COCCN1C2=NC(=NC(=C2)C3(CC3)[S@](=N)(=O)C)C4=C5C=CNC5=NC=C4 [AZD6738] (first compound max 1 µM, partner max 10 µM) | 0.0493 | 0.0036 | 0.0434 | -0.0312 | 0.0011 | 0.0091 | -0.0083 | 0.0132 | 0.0035 | -0.0458 | -0.0127 | 0.0368 | -0.0435 | 0.019 | -0.0536 | -0.0317 | 0.0428 | -0.01 | 0.0115 | 0.0143
7 | C=CCn1c(=O)c2cnc(Nc3ccc(N4CCN(C)CC4)cc3)nc2n1-c1cccc(C(C)(C)O)n1 [AZD1775] + O=C(c1cc(Cc2n[nH]c(=O)c3ccccc23)ccc1F)N1CCN(C(=O)C2CC2)CC1 [Olaparib] (first compound max 1 µM, partner max 10 µM) | -0.0484 | 0.0169 | 0.0391 | -0.0479 | -0.0941 | -0.0557 | -0.0195 | -0.0129 | -0.0279 | -0.0761 | -0.103 | -0.0222 | -0.0704 | -0.0118 | -0.0296 | -0.0212 | -0.0431 | -0.0795 | -0.0715 | -0.0077
8 | CCN(CCO)CCCOc1ccc2c(Nc3cc(CC(=O)Nc4cccc(F)c4)[nH]n3)ncnc2c1 [AZD2811] + C=CCn1c(=O)c2cnc(Nc3ccc(N4CCN(C)CC4)cc3)nc2n1-c1cccc(C(C)(C)O)n1 [AZD1775] (first compound max 1 µM, partner max 1 µM) | 0.0118 | -0.0341 | 0.0302 | -0.0112 | 0.0035 | -0.0904 | 0.0437 | -0.0134 | -0.0478 | -0.0106 | -0.0603 | -0.0014 | 0.0623 | -0.0176 | -0.0367 | -0.0831 | 0.0013 | -0.0159 | -0.0378 | -0.0158
9 | CCN(CCO)CCCOc1ccc2c(Nc3cc(CC(=O)Nc4cccc(F)c4)[nH]n3)ncnc2c1 [AZD2811] + C[C@@H]1COCCN1C2=NC(=NC(=C2)C3(CC3)[S@](=N)(=O)C)C4=C5C=CNC5=NC=C4 [AZD6738] (first compound max 1 µM, 7x7, partner max 10 µM) | -0.0477 | 0.0137 | -0.0227 | -0.131 | -0.0468 | -0.0579 | -0.002 | -0.018 | -0.0369 | -0.0703 | -0.0637 | -0.0461 | -0.0469 | -0.0294 | -0.103 | -0.0712 | -0.0452 | -0.0203 | -0.0357 | -0.0469
10 | Cc1c2c(nn1C)CSCc1cc(n(C)n1)CSc1cc(c3ccccc3c1)OCCCc1c(C(=O)O)n(C)c3c-2c(Cl)ccc13 [AZD5991] + CN(C)CCCOc1ccc(-c2ccc3ncc4c(c3c2)n(C2CCOCC2)c(=O)n4C)cn1 [AZD0156] (first compound max 1 µM, 7x7, partner max 1 µM) | 0.0044 | 0.0047 | 0.0318 | -0.0028 | -0.0444 | – | 0.0204 | -0.0014 | -0.0089 | 0.0162 | 0.0147 | -0.0151 | 0.0313 | -0.0069 | -0.167 | 0.005 | -0.0227 | -0.0129 | 0.0854 | -0.0369
11 | Cc1c2c(nn1C)CSCc1cc(n(C)n1)CSc1cc(c3ccccc3c1)OCCCc1c(C(=O)O)n(C)c3c-2c(Cl)ccc13 [AZD5991] + C[C@@H](Nc1cc(F)cc(F)c1)c1cc(C(=O)N(C)C)cc2c(=O)cc(N3CCOCC3)oc12 [AZD8186] (first compound max 1 µM, 7x7, partner max 3 µM) | -0.0114 | 0.0238 | -0.0305 | 0.0937 | 0.0005 | 0.0527 | 0.0418 | -0.0571 | -0.009 | – | -0.0238 | -0.0348 | -0.0178 | -0.0024 | -0.0029 | -0.0168 | 0.0034 | -0.0492 | 0.0267 | -0.0139
12 | CS(=O)(=O)CCNCc1ccc(-c2ccc3ncnc(Nc4ccc(OCc5cccc(F)c5)c(Cl)c4)c3c2)o1 [Lapatinib] + NC1(c2ccc(-c3nc4ccn5c(=O)[nH]nc5c4cc3-c3ccccc3)cc2)CCC1 [MK-2206] (first compound max 10 µM, 7x7, partner max 10 µM) | – | – | – | 0.024 | -0.0297 | -0.0376 | – | – | 0.0023 | – | -0.0522 | 0.0174 | 0.0239 | – | -0.0139 | -0.0221 | – | – | 0.0185 | 0.0323
13 | O=C(c1cc(Cc2n[nH]c(=O)c3ccccc23)ccc1F)N1CCN(C(=O)C2CC2)CC1 [Olaparib] + Cc1c2c(nn1C)CSCc1cc(n(C)n1)CSc1cc(c3ccccc3c1)OCCCc1c(C(=O)O)n(C)c3c-2c(Cl)ccc13 [AZD5991] (first compound max 10 µM, 7x7, partner max 1 µM) | – | – | – | -0.0185 | 0.0329 | -0.016 | – | – | – | – | -0.0374 | -0.045 | 0.015 | – | -0.0012 | -0.0327 | – | – | – | -0.0211
14 | CCc1c2c(nc3ccc(O)cc13)-c1cc3c(c(=O)n1C2)COC(=O)[C@]3(O)CC [SN-38] + O=C(c1cc(Cc2n[nH]c(=O)c3ccccc23)ccc1F)N1CCN(C(=O)C2CC2)CC1 [Olaparib] (first compound max 0.3 µM, 7x7, partner max 10 µM) | – | 0.071 | 0.0966 | 0.0458 | 0.0586 | 0.0315 | 0.0698 | 0.076 | – | 0.0614 | 0.0203 | 0.0526 | 0.0538 | 0.0467 | 0.0497 | 0.017 | – | 0.035 | 0.0457 | 0.0627
15 | Cc1nc(-c2cn3c(n2)-c2ccc(-c4cnn(C(C)(C)C(N)=O)c4)cc2OCC3)n(C(C)C)n1 [Taselisib] + O=C(Nc1ccc2[nH]nc(-c3ccncc3)c2c1)[C@@H]1CCN(CC(=O)N2CCN(c3ccc(-c4ncccn4)cc3)CC2)C1 [SCH772984] (first compound max 10 µM, 7x7, partner max 5 µM) | – | – | – | 0.0593 | 0.0205 | 0.0294 | – | – | – | – | -0.0073 | 0.0884 | 0.0128 | – | 0.0502 | 0.0543 | – | – | – | -0.0028
16 | CC1(C)CCC(CN2CCN(c3ccc(C(=O)NS(=O)(=O)c4ccc(NCC5CCOCC5)c([N+](=O)[O-])c4)c(Oc4cnc5[nH]ccc5c4)c3)CC2)=C(c2ccc(Cl)cc2)C1 [Venetoclax] + CS(=O)(=O)CCNCc1ccc(-c2ccc3ncnc(Nc4ccc(OCc5cccc(F)c5)c(Cl)c4)c3c2)o1 [Lapatinib] (first compound max 1 µM, 7x7, partner max 10 µM) | – | – | – | -0.0318 | -0.0328 | -0.0509 | – | – | – | – | -0.0289 | -0.0396 | 0.0078 | – | -0.0688 | -0.0431 | – | – | – | -0.0222

— the supplement of paper PMC11061612
